# Reference: publication PMC11920646 (Frontiers in Pharmacology, 2025)
# Experiments:
# [1] = biological target: T1, human progesterone receptor (PR) (Homo sapiens, UniProt P06401); experiment: Human PR radioligand binding (3H-progesterone, T47D cells); conditions: read-out: inhibition of 3H-progesterone binding; footnote: at 10 µM
# T1 sequence (P06401 636-933 limits assumed): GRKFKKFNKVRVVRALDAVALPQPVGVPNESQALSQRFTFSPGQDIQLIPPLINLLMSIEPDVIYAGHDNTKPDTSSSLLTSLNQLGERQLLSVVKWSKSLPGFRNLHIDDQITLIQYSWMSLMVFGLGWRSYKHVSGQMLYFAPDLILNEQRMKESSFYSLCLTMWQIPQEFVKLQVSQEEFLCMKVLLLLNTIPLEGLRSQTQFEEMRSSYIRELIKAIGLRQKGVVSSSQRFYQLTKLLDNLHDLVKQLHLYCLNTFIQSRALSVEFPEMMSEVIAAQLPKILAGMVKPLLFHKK
# Procedure: (§1) Scintillation counting of bound radioligand was conducted after 6 and 20 h of incubation (at 4°C), respectively. […] Scintillation counting of bound radioligand was conducted after 20 h of incubation at 4°C.
# (§2) The same statistical methods were used for the MR binding assays, but using MathIQ™ software (ID Business Solutions Ltd., Woking, United Kingdom).
# (§3) Percent inhibition of control specific binding was calculated as follows: […]
# (§4) The half-maximal inhibitory concentration (IC50; i.e., the concentration causing a half-maximal inhibition of control specific binding) and Hill coefficients (nH) were determined by non-linear regression analysis of the competition curves generated with mean replicate values using the following Hill equation curve fitting: Y=D+ A-D1+ C/C50nH , where Y = specific binding, A = left asymptote of the curve, D = right asymptote of the curve, C = compound concentration, C50 = IC50, and nH = slope factor.
# (§5) The inhibition constants (Ki) were calculated using the Cheng Prusoff equation:
# (§6) where L = concentration of radioligand employed in the assay, and KD = affinity of the radioligand for the receptor (a Scatchard plot was used to determine the KD) (Cheng and Prusoff, 1973).
# human MR = biological target: T2, human MR (Homo sapiens, UniProt P08235); experiment: Human MR radioligand binding (3H-aldosterone, recombinant MR from Sf9 cells); conditions: 3H-aldosterone 0.4 nM, 20 h, 4°C
# T2 construct: host or cells: insect Sf9 cells
# T2 sequence (P08235 1-984): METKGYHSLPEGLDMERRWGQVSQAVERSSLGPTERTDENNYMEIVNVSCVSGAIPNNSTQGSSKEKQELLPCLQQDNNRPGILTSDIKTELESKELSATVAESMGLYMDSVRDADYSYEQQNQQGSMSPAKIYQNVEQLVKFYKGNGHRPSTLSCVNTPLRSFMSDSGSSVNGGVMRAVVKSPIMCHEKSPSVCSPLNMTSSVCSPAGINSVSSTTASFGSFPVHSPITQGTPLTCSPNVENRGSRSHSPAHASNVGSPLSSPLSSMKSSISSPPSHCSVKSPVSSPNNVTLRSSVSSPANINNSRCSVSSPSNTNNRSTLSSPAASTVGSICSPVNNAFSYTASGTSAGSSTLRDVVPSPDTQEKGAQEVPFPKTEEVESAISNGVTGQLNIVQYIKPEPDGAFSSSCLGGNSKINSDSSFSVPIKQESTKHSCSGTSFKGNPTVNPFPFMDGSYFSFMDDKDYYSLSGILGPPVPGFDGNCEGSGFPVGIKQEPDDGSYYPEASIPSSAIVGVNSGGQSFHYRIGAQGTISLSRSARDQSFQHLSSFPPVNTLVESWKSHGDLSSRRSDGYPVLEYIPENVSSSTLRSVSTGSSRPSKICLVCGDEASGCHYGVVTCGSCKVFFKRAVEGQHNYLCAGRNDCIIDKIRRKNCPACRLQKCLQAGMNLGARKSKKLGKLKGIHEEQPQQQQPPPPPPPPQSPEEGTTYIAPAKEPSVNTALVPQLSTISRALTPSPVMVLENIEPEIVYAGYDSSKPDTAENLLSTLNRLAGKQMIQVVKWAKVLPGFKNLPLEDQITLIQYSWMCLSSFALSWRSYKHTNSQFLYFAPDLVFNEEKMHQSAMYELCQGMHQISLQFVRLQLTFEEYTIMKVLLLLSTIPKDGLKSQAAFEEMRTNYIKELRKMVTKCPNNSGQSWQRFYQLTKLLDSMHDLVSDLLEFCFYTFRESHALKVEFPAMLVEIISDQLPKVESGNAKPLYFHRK
# Procedure: as §1, §2, §3, §4, §5, §6
# [2] = test system: LPS-induced IFN-γ release in human whole blood; experiment: Inhibition of LPS-induced IFN-γ release in human whole blood; format: cell-based; conditions: 24 h
# [3] = test system: OPG release in human osteoblast cell line MG-63; experiment: Inhibition of OPG release in MG-63 osteoblast cells; format: cell-based; conditions: MG-63 cells, 24 h
# Procedure: ([Humphrey et al., 2006]). […] After a 24-h incubation in standard conditions, supernatant was collected and OPG measured using the human osteoprotegerin/TNFRSF11B DuoSet® ELISA (R&D Systems, Minneapolis, MN, United States), according to the manufacturer’s instructions (Supplementary Material). A 3-parameter nonlinear regression was performed using GraphPad PRISM v7.03 software (Graphpad Software Inc.) to determine IC50 values.
# All incubations in this assay were conducted at room temperature. Anti-OPG capture antibodies, diluted in Dulbecco's phosphate-buffered saline (DPBS), were transferred into a coated 96-well plate (100 µL/well). After overnight incubation, and triplicate washing (400 µL/well) with wash buffer (0.05% Tween 20 in DPBS, pH 7.2–7.4), 300 µL of Reagent Diluent (1% bovine serum albumin [BSA] in DPBS) was added, followed by a 1-h incubation, and thereafter three washing steps again. Then, 100 µL of supernatant, standard or reagent diluent were added per well for a 2-h incubation. After repeating three washing steps, 100 µL of detection antibody diluted in reagent diluent (including normal goat serum) were added to each well, followed by a 2-h incubation. After repeating three washing steps, 100 µL of Streptavidin conjugated to horseradish-peroxidase solution was added per well for a 20-min incubation. Finally, 50 µL/well of stop solution was added. After gently shaking of the plate to ensure thorough mixing, the optical density of each well was determined immediately using the Eon™ Microplate Spectrophotometer (Bio Tek Instruments) set at 450 nm.
# Supplementary Figure S2. […] Error bars indicate standard error of the mean. […] Log c, log concentration.
# [4] = test system: IFN-γ release in human whole blood; set-up: method as in Hu et al., 2011; conditions: at concentrations each of 100–1000 nM ref Hu et al., 2011; cited from earlier work
# [5] = humans ref Ferry et al., 1988; cited from earlier work
smiles,measurement,setting,value
C[C@]12C=CC(=O)C=C1CC[C@@H]1[C@@H]2[C@@H](O)C[C@@]2(C)[C@H]1CC[C@]2(O)C(=O)CO [Prednisolone],inhibition at 10 µM,[1],12.1 to 30.7%
same,IC50,human MR; read-out: Mineralocorticoid receptor IC50,0.78 nM
same,Ki,human MR; read-out: Mineralocorticoid receptor Ki,0.26 nM
same,IC50,[2],13.4 ± 7.95 nM
same,Inhibition of LPS-induced IFN-γ release,[2],99.3 ± 2.8%
same,Inhibition of LPS-induced IFN-γ release,[2]; listed as prednisolone,99%
same,IC50,[3]; Homo sapiens,3.1 ± 4.3 nM
same,Inhibition of OPG release (maximal level),[3],100 ± 0%
same,Inhibition of OPG release (maximal level),[3]; listed as prednisolone,fully inhibiting OPG release
same,inhibition of IFN-γ release in human whole blood,[4],85–100%
same,t½,[5],~2.5 h
